Among the data in patent publication US20230049231A1 (priority 2019, published 2023) are IC50 values, retold here.

The target of one assay is T1, Kv1.3 potassium channel (Homo sapiens, UniProt P22001).
T1 construct: expressed in transfected cells
In words: Kv1.3 potassium channel blocker activity, automated whole-cell patch clamp (Patchliner). The class given is cell-based. In a few lines:
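IC50 came from Hill-equation fits of peak and AUC currents from the final pulse at each concentration, normalized to compound-free control. Compounds applied consecutively at 30 nM to 100 μM (up to 0.3% DMSO) to Kv1.3-expressing CHO-K1 cells, P/4 leak subtraction. Pulses were +40 mV, 100 ms, from −90 mV holding, at 0.1 Hz on Patchliner.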

A further assay concerns the target T2, hERG channel (Homo sapiens, UniProt Q12809).
T2 construct: expressed in transfected cells
As to the kind of experiment: hERG electrophysiology, automated whole-cell patch clamp (Patchliner). The class given is cell-based. In a few lines: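 Automated whole-cell patch clamp on CHO-K1 cells stably expressing hERG; 30 nM–100 μM applied cumulatively to the same cell, ≤0.3% DMSO. Pulses: −80 mV holding, +20 mV for 300 ms, −50 mV for 300 ms tail, 0.3 Hz, 70 per concentration. Last-pulse AUC and peak, normalized to control, were fitted to a Hill equation for IC50.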
In general terms: hERG is a cardiac potassium channel; its block is linked to QT prolongation.

Setting [1] is: Kv1.3 potassium channel, whole-cell patch clamp.
[2] abbreviates: hERG channel, whole-cell patch clamp.
Setting [3] is: CHO-K1 cells stably expressing Kv1.3, 100 ms pulses from -90 mV to +40 mV, 0.1 Hz.
[4] abbreviates: CHO-K1 cells stably expressing hERG, +20 mV 300 ms, -50 mV 300 ms tail current, 0.3 Hz.

A value given as a limit tells only on which side of the number the result lay.

T2 sequence (Q12809 whole entry): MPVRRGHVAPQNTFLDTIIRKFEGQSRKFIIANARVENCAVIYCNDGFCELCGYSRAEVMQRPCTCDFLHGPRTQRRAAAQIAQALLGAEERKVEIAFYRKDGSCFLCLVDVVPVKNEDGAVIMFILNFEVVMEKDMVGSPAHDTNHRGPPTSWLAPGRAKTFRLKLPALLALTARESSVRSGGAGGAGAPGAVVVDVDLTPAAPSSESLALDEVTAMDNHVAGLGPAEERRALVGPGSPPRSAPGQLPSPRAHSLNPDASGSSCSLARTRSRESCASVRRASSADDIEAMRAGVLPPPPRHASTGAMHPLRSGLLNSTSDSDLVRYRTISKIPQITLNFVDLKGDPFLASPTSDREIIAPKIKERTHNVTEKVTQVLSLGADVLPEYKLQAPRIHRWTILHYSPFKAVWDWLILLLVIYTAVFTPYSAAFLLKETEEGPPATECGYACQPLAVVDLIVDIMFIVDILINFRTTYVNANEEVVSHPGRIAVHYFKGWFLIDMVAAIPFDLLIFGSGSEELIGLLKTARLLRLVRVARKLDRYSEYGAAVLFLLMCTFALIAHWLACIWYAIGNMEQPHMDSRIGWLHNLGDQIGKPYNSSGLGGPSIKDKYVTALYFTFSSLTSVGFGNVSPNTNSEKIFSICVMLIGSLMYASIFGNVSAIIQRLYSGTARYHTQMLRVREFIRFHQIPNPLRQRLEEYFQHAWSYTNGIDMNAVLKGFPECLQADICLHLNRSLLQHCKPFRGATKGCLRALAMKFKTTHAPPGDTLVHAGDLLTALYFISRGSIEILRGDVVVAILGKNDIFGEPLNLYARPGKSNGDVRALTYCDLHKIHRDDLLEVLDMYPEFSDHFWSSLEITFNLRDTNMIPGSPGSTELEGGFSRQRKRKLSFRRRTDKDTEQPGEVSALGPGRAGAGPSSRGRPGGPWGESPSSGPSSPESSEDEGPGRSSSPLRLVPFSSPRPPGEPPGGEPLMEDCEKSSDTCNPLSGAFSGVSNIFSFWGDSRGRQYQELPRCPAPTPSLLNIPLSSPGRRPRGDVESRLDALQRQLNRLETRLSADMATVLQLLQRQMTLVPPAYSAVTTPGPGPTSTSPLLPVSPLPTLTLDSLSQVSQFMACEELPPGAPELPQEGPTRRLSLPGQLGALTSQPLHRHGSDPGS
T1 sequence (P22001 whole entry): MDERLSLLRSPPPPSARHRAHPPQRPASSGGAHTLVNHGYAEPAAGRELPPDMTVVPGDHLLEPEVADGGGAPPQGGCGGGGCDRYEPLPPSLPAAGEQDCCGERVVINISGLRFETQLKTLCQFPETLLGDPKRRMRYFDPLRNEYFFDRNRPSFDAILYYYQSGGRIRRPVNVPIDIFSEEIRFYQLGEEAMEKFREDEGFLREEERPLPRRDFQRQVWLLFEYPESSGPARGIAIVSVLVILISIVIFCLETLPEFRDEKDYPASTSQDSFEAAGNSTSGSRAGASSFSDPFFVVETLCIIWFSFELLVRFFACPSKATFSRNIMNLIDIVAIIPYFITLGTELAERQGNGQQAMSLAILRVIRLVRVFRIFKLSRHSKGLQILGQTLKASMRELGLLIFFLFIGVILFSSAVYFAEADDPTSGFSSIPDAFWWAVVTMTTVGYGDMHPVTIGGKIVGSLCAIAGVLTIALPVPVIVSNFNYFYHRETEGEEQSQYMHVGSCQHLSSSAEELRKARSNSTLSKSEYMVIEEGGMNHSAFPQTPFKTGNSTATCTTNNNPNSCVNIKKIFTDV

With `O=C1CN(CCN2CCOCC2)C[C@@H]2C[C@H](c3c(O)ccc(Cl)c3Cl)CN12` [Compound 121, (7R,8aS)-7-(2,3-dichloro-6-hydroxyphenyl)-2-[2-(morpholin-4-yl)ethyl]-hexahydropyrrolo [1,2-a]pyrazin-4-one], the IC50 (usually the concentration needed to halve the response being measured) against Kv1.3 potassium channel (setting [1]) was under 1 µM; against hERG channel (setting [2]) it was under 30 µM.

Turning to `CCO[C@H](CO)C(=O)N1CC(=O)N2C[C@@H](c3c(O)ccc(Cl)c3Cl)C[C@H]2C1` [Compound 66, (7R,8aS)-7-(2,3-dichloro-6-hydroxyphenyl)-2-[(2R)-2-ethoxy-3-hydroxypropanoyl]-hexahydropyrrolo[1,2-a]pyrazin-4-one], the IC50 on Kv1.3 potassium channel (setting [1]) was under 1 µM; against hERG channel (setting [2]) it was over 30 µM.

For `O=C(N1CC(CO)C1)N1CC(=O)N2C[C@@H](c3c(O)ccc(Cl)c3Cl)C[C@H]2C1` [Compound 103, (7R,8aS)-7-(2,3-dichloro-6-hydroxypheny1)-2-[3-(hydroxymethyl)azetidine-1-carbonyl]-hexahydropyrro[1,2-a]pyrazine-4-one], the IC50 at Kv1.3 potassium channel (setting [1]) is under 1 µM; at hERG channel (setting [2]), over 30 µM.

Regarding `O=C1CN(C[C@H]2CCN2)C[C@@H]2C[C@H](c3c(O)ccc(Cl)c3Cl)CN12` (single isomer, unassigned; isomer 2) [Compound 140], the results for the concentration for half-maximal inhibition (IC50) on Kv1.3 potassium channel (setting [1]) and against hERG channel (setting [2]) were under 1 µM and over 30 µM, respectively.

Take `O=C1OC[C@@H](O)[C@@H]2C[C@H](c3c(O)ccc(Cl)c3Cl)CN12` (single isomer, unassigned) [Compound 266]: the 50% inhibitory concentration (IC50) against Kv1.3 potassium channel (setting [1]) was under 1 µM; on hERG channel (setting [2]), over 30 µM.

Take `O=C1C[C@@H](CN2CC(O)C2)C[C@@H]2C[C@H](c3c(O)ccc(Cl)c3Cl)CN12` (single isomer, unassigned) [Compound 242]: the IC50 was under 1 µM against Kv1.3 potassium channel (setting [1]) and over 30 µM against hERG channel (setting [2]).

`O=C1CN(C(=O)C2(CO)CC2)C[C@@H]2C[C@H](c3c(O)ccc(Cl)c3Cl)CN12` [Compound 67, (7R,8aS)-7-(2,3-dichloro-6-hydroxyphenyl)-2-[1-(hydroxymethyl)cyclopro-panecarbonyl]-hexahydropyrrolo[1,2-a]pyrazin-4-one]: the IC50 was under 1 µM against Kv1.3 potassium channel (setting [1]) and over 30 µM at hERG channel (setting [2]).

As to `O=C1CN(C[C@H](O)CO)C[C@@H]2C[C@H](c3c(O)ccc(Cl)c3Cl)CN12` (single isomer, unassigned; isomer 2) [Compound 115], the IC50 against Kv1.3 potassium channel (setting [1]) is under 1 µM; on hERG channel (setting [2]), over 30 µM.

For the molecule `O=C1O[C@@H](CN2CC(O)C2)[C@@H]2C[C@H](c3c(O)ccc(Cl)c3Cl)CN12` (single isomer, unassigned) [Compound 282], the concentration for half-maximal inhibition (IC50) on Kv1.3 potassium channel (setting [1]) was under 1 µM; against hERG channel (setting [2]) it was under 30 µM.

As for `COC(CO)CN1CC(=O)N2C[C@@H](c3c(O)ccc(Cl)c3Cl)C[C@H]2C1` (stereo partly drawn) [Compound 156, (7R,8aS)-7-(2,3-dichloro-6-hydroxyphenyl)-2-(3-hydroxy-2-methoxypropyl) hexahydropyrrolo[1,2-a]pyrazin-4-one], the IC50 at Kv1.3 potassium channel (setting [1]) was under 1 µM; on hERG channel (setting [2]), over 30 µM.

In the case of `O=C1O[C@H](CN2CC(O)C2)[C@@H]2C[C@H](c3c(O)ccc(Cl)c3Cl)CN12` (single isomer, unassigned) [Compound 283], the results for the IC50 on Kv1.3 potassium channel (setting [1]) and against hERG channel (setting [2]) were under 1 µM and over 30 µM, respectively.

For `Nc1ccnc(N2CC(=O)N3C[C@@H](c4c(O)ccc(Cl)c4Cl)C[C@H]3C2)c1` [Compound 171, (7R,8aS)-2-(4-aminopyridin-2-yl)-7-(2,3-dichloro-6-hydroxyphenyl)-hexahydropyrrolo[1,2-a]pyrazin-4-one], the values for the IC50 against Kv1.3 potassium channel (setting [1]) and on hERG channel (setting [2]) were under 1 µM and under 10 µM, respectively.

Take `O=C1CN(C[C@@H]2CNCCO2)C[C@@H]2C[C@H](c3c(O)ccc(Cl)c3Cl)CN12` [Compound 146, (7R,8aS)-7-(2,3-dichloro-6-hydroxyphenyl)-2-[(2S)-morpholin-2-ylmethyl]-hexahydropyrrolo [1,2-a]pyrazin-4-one]: the results for the IC50 against Kv1.3 potassium channel (setting [1]) and on hERG channel (setting [2]) were under 1 µM and over 30 µM, respectively.

In the case of `CN1CC(N2CC(=O)N3C[C@@H](c4c(O)ccc(Cl)c4Cl)C[C@H]3C2)C1` [Compound 132, (7R,8aS)-7-(2,3-dichloro-6-hydroxyphenyl)-2-(1-methylazetidin-3-yl)-hexahydropyrrolo [1,2-a]pyrazin-4-one], the results for the IC50 against Kv1.3 potassium channel (setting [1]) and on hERG channel (setting [2]) were under 1 µM and under 30 µM, respectively.

As to `O=C(NCCO)N1CC(=O)N2C[C@@H](c3c(O)ccc(Cl)c3Cl)C[C@H]2C1` [Compound 104, (7R,8aS)-7-(2,3-dichloro-6-hydroxyphenyl)-N-(2-hydroxyethyl)-4-oxo-hexahydropyrro[1,2-a]pyrazine-2-carboxamide], the IC50 against Kv1.3 potassium channel (setting [1]) is under 1 µM; at hERG channel (setting [2]), over 30 µM.

In the case of `CC(CO)(CO)N1CC(=O)N2C[C@@H](c3c(O)ccc(Cl)c3Cl)C[C@H]2C1` [Compound 162, (7R,8aS)-7-(2,3-dichloro-6-hydroxyphenyl)-2-(1,3-dihydroxy-2-methylpropan-2-yl)-hexahydropyrrolo[1,2-a]pyrazin-4-one], the values for the concentration for half-maximal inhibition (IC50) against Kv1.3 potassium channel (setting [1]) and on hERG channel (setting [2]) were under 1 µM and over 30 µM, respectively.

`O=C1[C@@H](CO)NC[C@@H]2C[C@H](c3c(O)ccc(Cl)c3Cl)CCN12` (relative stereo) [Compound 28, (8R,9aS)-rel-8-(2,3-dichloro-6-hydroxyphenyl)-3-((3R)-hydroxymethyl-octahydropyrido[1,2-a]pyrazin-4-one trifluoroacetic acid]: the figures for the IC50 against Kv1.3 potassium channel (setting [3]) and against hERG channel (setting [4]) were under 1 µM and over 30 µM, respectively.

As to `CC[C@@H](O)C(=O)N1CC(=O)N2CC[C@@H](c3c(O)ccc(Cl)c3Cl)C[C@H]2C1` [Compound 21, (8R,9aS)-8-(2,3-dichloro-6-hydroxyphenyl)-2-[(2R)-2-hydroxybutanoyl]-hexahydro-1H-pyrido[1,2-a]pyrazin-4-one], the IC50 was under 1 µM on Kv1.3 potassium channel (setting [3]) and under 30 µM against hERG channel (setting [4]).

For the molecule `O=C1CN(c2ncc[nH]2)C[C@@H]2C[C@H](c3c(O)ccc(Cl)c3Cl)CN12` [Compound 176, (7R,8aS)-7-(2,3-dichloro-6-hydroxyphenyl)-2-(1H-imidazol-2-yl)-hexahydropyrrolo[1,2-a]pyrazin-4-one], the IC50 against Kv1.3 potassium channel (setting [1]) was under 1 µM; against hERG channel (setting [2]), under 30 µM.

In the case of `O=C1CC(CN2CCNCC2)C[C@@H]2C[C@H](c3c(O)ccc(Cl)c3Cl)CN12` (stereo partly drawn) [Compound 241, (2R,8aR)-2-(2,3-dichloro-6-hydroxyphenyl)-7-(piperazin-1-ylmethyl)-hexahydro-1H-indolizin-5-one], the IC50 against Kv1.3 potassium channel (setting [1]) was under 1 µM; at hERG channel (setting [2]), over 30 µM.

Regarding `O=C1CC(O)(CO)C[C@@H]2C[C@H](c3c(O)ccc(Cl)c3Cl)CN12` (stereo partly drawn) [Compound 220, (2R,8aS)-2-(2,3-dichloro-6-hydroxyphenyl)-7-hydroxy-7-(hydroxymethyl)-hexahydroindolizin-5-one], the IC50 against Kv1.3 potassium channel (setting [1]) was under 1 µM; on hERG channel (setting [2]), over 30 µM.

In the case of `O=C(NC[C@H]1OC(=O)N2C[C@@H](c3c(O)ccc(Cl)c3Cl)C[C@@H]12)C1CNC1` (single isomer, unassigned) [Compound 278], the results for the IC50 against Kv1.3 potassium channel (setting [1]) and against hERG channel (setting [2]) were under 1 µM and over 30 µM, respectively.

In the case of `NC(=O)[C@H]1OC(=O)N2C[C@@H](c3c(O)ccc(Cl)c3Cl)C[C@@H]12` (single isomer, unassigned) [Compound 287], the concentration for half-maximal inhibition (IC50) at Kv1.3 potassium channel (setting [1]) was under 1 µM; against hERG channel (setting [2]), over 30 µM.

Consider `O=C1CC(O)C[C@@H]2C[C@H](c3c(O)ccc(Cl)c3Cl)CCN12` (stereo partly drawn) [Compound 250, (8R,9aS)-8-(2,3-dichloro-6-hydroxyphenyl)-2-hydroxy-octahydroquinolizin-4-one], for which the IC50 on Kv1.3 potassium channel (setting [1]) is under 1 µM; against hERG channel (setting [2]), over 30 µM.

On to `O=C(CO)N1CC(=O)N2CC(c3c(O)ccc(Cl)c3Cl)C[C@H]2C1` (stereo partly drawn) [Compound 24, (8aS)-7-(2,3-dichloro-6-hydroxyphenyl)-2-(2-hydroxyacetyl)-hexahydropyrrolo[1,2-a]pyrazin-4-one], for which the IC50 at Kv1.3 potassium channel (setting [3]) is under 1 µM; at hERG channel (setting [4]), over 30 µM.

On to `O=C1O[C@H](CO)C[C@@H]2C[C@H](c3c(O)ccc(Cl)c3Cl)CN12` (single isomer, unassigned) [Compound 268], for which the half-inhibitory concentration (IC50) is under 1 µM against Kv1.3 potassium channel (setting [1]) and over 30 µM against hERG channel (setting [2]).

As for `NC(=O)CN1CC(=O)N2C[C@@H](c3c(O)ccc(Cl)c3Cl)C[C@H]2C1` [Compound 110, 2-[(7R,8aS)-7-(2,3-dichloro-6-hydroxyphenyl)-4-oxo-hexahydropyrrolo [1,2-a]pyrazin-2-yl]acetamide], the IC50 on Kv1.3 potassium channel (setting [1]) is under 1 µM; against hERG channel (setting [2]), over 30 µM.

As for `C[C@H](O)[C@H](CO)N1CC(=O)N2C[C@@H](c3c(O)ccc(Cl)c3Cl)C[C@H]2C1` (relative stereo) [Compound 165, (7R,8aS)-7-(2,3-dichloro-6-hydroxyphenyl)-2-[(2S,3S)-rel-1,3-dihydroxybutan-2-yl]-hexahydropyrrolo[1,2-a]pyrazin-4-one], the values for the IC50 against Kv1.3 potassium channel (setting [1]) and against hERG channel (setting [2]) were under 1 µM and over 30 µM, respectively.

With `O=C1C[C@H](O)C[C@@H]2C[C@H](c3c(O)ccc(Cl)c3Cl)CN12` (single isomer, unassigned; isomer 2) [Compound 62], the IC50 is under 1 µM on Kv1.3 potassium channel (setting [3]) and over 30 µM at hERG channel (setting [4]).

For `CC(CO)N1CC(=O)N2C[C@@H](c3c(O)ccc(Cl)c3Cl)C[C@H]2C1` (stereo partly drawn) [Compound 127, (7R,8aS)-7-(2,3-dichloro-6-hydroxyphenyl)-2-(1-hydroxypropan-2-yl)-hexahydropyrrolo [1,2-a]pyrazin-4-one], the IC50 against Kv1.3 potassium channel (setting [1]) was under 1 µM; at hERG channel (setting [2]), over 30 µM.

As for `O=C1C[C@@H](c2cn[nH]c2)C[C@@H]2C[C@H](c3c(O)ccc(Cl)c3Cl)CN12` (single isomer, unassigned) [Compound 215], the concentration for half-maximal inhibition (IC50) against Kv1.3 potassium channel (setting [1]) was under 1 µM; on hERG channel (setting [2]) it was over 30 µM.
